In publication PMC5031402 (PLoS ONE, 2016):
Read-outs that look alike come from different tables or passages of the source.

Experiments:
AChE [1] = settings: read-out: IC50-30min; Genidens genidens, marine fish; cited from earlier work
brain AChE [2] = assay type: biochemical; settings: Genidens genidens (catfish) brain AChE
Experimental: (§1) The residual enzyme activities [Er] were evaluated.

brain AChE [3] = assay type: biochemical, Mugil liza; settings: for inhibition of AChE: mullet AChE, 1-5 min incubation
Experimental: as §1

AChE [4] = settings: read-out: IC50-30min; Prochilodus lineatus, freshwater fish; cited from earlier work
AChE [5] = settings: read-out: IC50-30min; Percophis brasiliensis, marine fish; cited from earlier work
AChE [6] = settings: read-out: IC50-30min; Piaractus mesopotamicus, freshwater fish; cited from earlier work
brain AChE [7] = assay type: biochemical, Lagocephalus laevigatus
Experimental: as §1

brain AChE [8] = biological target: T1, brain AChE (Gallus gallus, UniProt P36196); settings: Gallus domesticus (hen) brain AChE
T1 sequence (P36196 20-767): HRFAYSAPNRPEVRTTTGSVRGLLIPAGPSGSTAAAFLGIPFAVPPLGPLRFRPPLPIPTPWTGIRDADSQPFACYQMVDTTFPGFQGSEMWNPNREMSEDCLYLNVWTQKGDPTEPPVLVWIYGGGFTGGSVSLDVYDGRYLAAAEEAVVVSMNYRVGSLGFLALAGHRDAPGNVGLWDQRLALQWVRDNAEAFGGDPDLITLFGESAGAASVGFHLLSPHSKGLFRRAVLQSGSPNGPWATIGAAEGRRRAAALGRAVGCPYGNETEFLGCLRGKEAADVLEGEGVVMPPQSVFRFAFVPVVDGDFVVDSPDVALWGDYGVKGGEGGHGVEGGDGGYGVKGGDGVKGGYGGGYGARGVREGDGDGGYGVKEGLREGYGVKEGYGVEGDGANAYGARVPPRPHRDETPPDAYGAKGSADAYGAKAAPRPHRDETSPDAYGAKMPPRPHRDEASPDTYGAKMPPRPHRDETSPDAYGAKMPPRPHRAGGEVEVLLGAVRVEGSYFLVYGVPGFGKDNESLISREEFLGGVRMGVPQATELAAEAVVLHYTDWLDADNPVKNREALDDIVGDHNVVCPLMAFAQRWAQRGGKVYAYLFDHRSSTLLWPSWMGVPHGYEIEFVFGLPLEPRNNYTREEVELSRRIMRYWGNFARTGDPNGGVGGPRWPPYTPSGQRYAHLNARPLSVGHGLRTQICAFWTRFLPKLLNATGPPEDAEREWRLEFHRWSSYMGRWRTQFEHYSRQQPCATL
Experimental: Whole brains were suspended in buffer (1 g of tissue plus 10 mL sodium phosphate 0.1 M, pH 7.5) and homogenized in an ice bath using an Ultra-Turrax homogenizer. The homogenate was then centrifuged (5,000g/30 min/5°C), and the soluble fraction was discarded. The pellet was then resuspended using the same volume of a 0.1 g% Triton X-100 in a 0.1 M sodium phosphate, pH 7.5, solution, and re-homogenized. After a second centrifugation (15,000g/90 min/5°C), the supernatant resulting from the pellet ressolubilization, or “solubilized AChE—AchEsol” [7], was collected, frozen, and stored at -20°C. All assays were conducted at most 72 hours after production of the supernatant fractions (AChEsol).
Brain AChE activity was assayed spectrophotometrically in 0.1 M sodium phosphate Triton X-100 0.1 g% pH 7.5 by a modification of Ellman’s method [18], as described by Silva Filho and colleagues [7]. The specificity of AChE for substrates (P%) was calculated by the ratio of AChE activity when using propionylthiocholine as substrate divided by AChE activity when using acetylthiocholine: P%, [(activity with ProScol/activity with AceScol) x 100] (%) [6].
Inhibition kinetic constants (IKC) were obtained using the methods described by Kemp and Wallace [9] and Carr and Chambers [19], and by the equations proposed by Kitz and Wilson [10] and Main [12]. […]

brain AChE [9] = settings: read-out: IC50-30min; Gallus (chicken) brain AChE; cited from earlier work
brain AChE [10] = settings: read-out: IC50-30min; Rattus (rat) brain AChE; cited from earlier work

For COP(=O)(OC)Oc1ccc([N+](=O)[O-])cc1 [methyl-paraoxon, dimethyl-4-nitrophenyl-phosphate], the IC50 (AChE [1]) is given as 455 nM, the “kp: phosphorylation rate constant” value (brain AChE [2]) is given as 0.71 ± 0.1 min⁻¹ and the “ki: Bimolecular reaction constant” value (brain AChE [2]; pH 7.5, 0.1 g% Triton X-100) is given as 588 ± 26.7 M⁻¹ s⁻¹. The Kd (brain AChE [2]; read-out: Kd: dissociation constant of enzyme-inhibitor complex (EI)) was 20300 ± 2950 nM, the “kp: phosphorylation rate constant” value (brain AChE [3]; Mugil liza (mullet) brain AChE) was 1.64 ± 0.6 min⁻¹ and the “ki: Bimolecular reaction constant” value (brain AChE [3]; Mugil liza (mullet) brain AChE, pH 7.5, 0.1 g% Triton X-100) was 179.5 ± 11.5 M⁻¹ s⁻¹. The Kd (brain AChE [3]; Mugil liza (mullet) brain AChE, read-out: Kd: dissociation constant of enzyme-inhibitor complex (EI)) was 159000 ± 59600 nM, the “inhibition of AChE” value (brain AChE [3]; 5μM of MP) was “less than 10%” and the “inhibition of AChE” value (brain AChE [3]; 208μM of MP) was “higher than 90%”. For the same compound, the IC50 (brain AChE [3]; read-out: IC50: concentration that produced 50% inhibition of brain AChE activity in 30 min, Mugil liza (mullet), 30 min incubation, estimated using the ki) was 2880 ± 422 nM, the IC50 (AChE [4]) was 123 nM and the IC50 (AChE [5]) was 3340 nM. For the same compound, the IC50 (AChE [6]) was 3110 nM, the “kp: phosphorylation rate constant” value (brain AChE [7]; Lagocephalus laevigatus (puffer fish) brain AChE) was 0.55 ± 0.08 min⁻¹ and the “ki: Bimolecular reaction constant” value (brain AChE [7]; Lagocephalus laevigatus (puffer fish) brain AChE, pH 7.5, 0.1 g% Triton X-100) was 155 ± 12.7 M⁻¹ s⁻¹. The Kd (brain AChE [7]; Lagocephalus laevigatus (puffer fish) brain AChE, read-out: Kd: dissociation constant of enzyme-inhibitor complex (EI)) was 62600 ± 14700 nM, the IC50 (brain AChE [7]; read-out: IC50: concentration that produced 50% inhibition of brain AChE activity in 30 min, Lagocephalus laevigatus (puffer fish), 30 min incubation, estimated using the ki) was 2840 ± 145 nM and the “kp: phosphorylation rate constant” value (brain AChE [8]) was 0.47 ± 0.1 min⁻¹. The “ki: Bimolecular reaction constant” value (brain AChE [8]; pH 7.5, 0.1 g% Triton X-100) was 15010 ± 1090 M⁻¹ s⁻¹, the IC50 (brain AChE [9]) was 37 nM and the IC50 (brain AChE [10]) was 29 nM.
